Experimental data published in PubChem BioAssay AID248 (DTP/NCI, 2004).
Values joined by “and” are separate entries in the source; they are usually repeats but may differ in a detail not shown here. Identical values can stand only once. Toxic doses and inconclusive results are not listed.

Test system: L1210 leukemia ip in BDF1 mice, survival T/C
Experiment: NCI In Vivo Anticancer Drug Screen. Data for tumor model L1210 Leukemia (intraperitoneal) in B6D2F1 (BDF1) mice
Settings: endpoint: mean survival time, higher = longer survival
Summary of the method: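 Ratio derived from survival: compound-dosed mice over vehicle-dosed mice, all bearing a transplantable tumor.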

[1] = dose: 25.0 mg/kg/injection, schedule: Q04DX003 (ip), vehicle: Klucel (hydroxypropylcellulose) (HPC)
[2] = dose: 50.0 mg/kg/injection, schedule: Q04DX003 (ip), vehicle: Klucel (hydroxypropylcellulose) (HPC)
[3] = dose: 100.0 mg/kg/injection, schedule: Q04DX003 (ip), vehicle: Klucel (hydroxypropylcellulose) (HPC)
[4] = dose: 200.0 mg/kg/injection, schedule: Q04DX003 (ip), vehicle: Klucel (hydroxypropylcellulose) (HPC)
[5] = dose: 100.0 mg/kg/injection, schedule: Q01DX001 (ip), vehicle: carboxymethylcellulose (CMC)
[6] = dose: 200.0 mg/kg/injection, schedule: Q01DX001 (ip), vehicle: carboxymethylcellulose (CMC)
[7] = dose: 100.0 mg/kg/injection, schedule: Q04DX003 (ip), vehicle: saline with Tween-80
[8] = dose: 200.0 mg/kg/injection, schedule: Q04DX003 (ip), vehicle: saline with Tween-80
[9] = dose: 400.0 mg/kg/injection, schedule: Q04DX003 (ip), vehicle: saline with Tween-80
[10] = dose: 100.0 mg/kg/injection, schedule: Q01DX001 (ip), vehicle: saline
[11] = dose: 100.0 mg/kg/injection, schedule: Q04DX003 (ip), vehicle: saline
[12] = dose: 200.0 mg/kg/injection, schedule: Q01DX001 (ip), vehicle: saline
[13] = dose: 200.0 mg/kg/injection, schedule: Q04DX003 (ip), vehicle: saline
[14] = dose: 400.0 mg/kg/injection, schedule: Q01DX001 (ip), vehicle: saline
[15] = dose: 400.0 mg/kg/injection, schedule: Q04DX003 (ip), vehicle: saline
[16] = dose: 100.0 mg/kg/injection, schedule: Q01DX009 (ip), vehicle: Klucel (hydroxypropylcellulose) (HPC)
[17] = dose: 200.0 mg/kg/injection, schedule: Q01DX009 (ip), vehicle: Klucel (hydroxypropylcellulose) (HPC)
[18] = dose: 100.0 mg/kg/injection, schedule: Q04DX003 (ip), vehicle: other
[19] = dose: 200.0 mg/kg/injection, schedule: Q04DX003 (ip), vehicle: other
[20] = dose: 400.0 mg/kg/injection, schedule: Q04DX003 (ip), vehicle: other

## CCN(CC)CC(C)Nc1ccc([N+](=O)[O-])c2sc3ccccc3c(=O)c12 (centres undefined)
dose: 9.0 mg/kg/injection, schedule: Q01DX Z (ip), vehicle: carboxymethylcellulose (CMC)
  T/C: 122 % of control
dose: 10.0 mg/kg/injection, schedule: Q01DX Z (ip), vehicle: other
  T/C: 107 % of control
dose: 12.0 mg/kg/injection, schedule: Q01DX Z (ip), vehicle: methylcellulose (MC)
  T/C: 108 % of control and 112 % of control
dose: 17.7 mg/kg/injection, schedule: Q01DX Z (ip), vehicle: carboxymethylcellulose (CMC)
  T/C: 108 % of control
dose: 18.0 mg/kg/injection, schedule: Q01DX Z (ip), vehicle: methylcellulose (MC)
  T/C: 110 % of control and 114 % of control
dose: 26.0 mg/kg/injection, schedule: Q01DX Z (ip), vehicle: carboxymethylcellulose (CMC)
  T/C: 122 % of control
dose: 27.0 mg/kg/injection, schedule: Q01DX Z (ip), vehicle: carboxymethylcellulose (CMC)
  T/C: 122 % of control
dose: 40.0 mg/kg/injection, schedule: Q01DX Z (ip), vehicle: carboxymethylcellulose (CMC)
  T/C: 175 % of control
dose: 41.0 mg/kg/injection, schedule: Q01DX Z (ip), vehicle: carboxymethylcellulose (CMC)
  T/C: 169 % of control
dose: 80.0 mg/kg/injection, schedule: Q01DX Z (ip), vehicle: carboxymethylcellulose (CMC)
  T/C: 170 % of control
dose: 90.0 mg/kg/injection, schedule: Q01DX Z (ip), vehicle: other
  T/C: 171 % of control
dose: 250.0 mg/kg/injection, schedule: Q## X000 (other), vehicle: carboxymethylcellulose (CMC)
  T/C: 158 % of control
dose: 270.0 mg/kg/injection, schedule: Q01DX Z (ip), vehicle: other
  T/C: 97 % of control

## CCOC(=O)c1[nH]c(C)c(CCC(=O)O)c1C
dose: 12.0 mg/kg/injection, schedule: Q04DX003 (ip), vehicle: Klucel (hydroxypropylcellulose) (HPC)
  T/C: 95 % of control
[1]
  T/C: 98 % of control
[2]
  T/C: 104 % of control
dose: 100.0 mg/kg/injection, schedule: Q01DX001 (ip), vehicle: Klucel (hydroxypropylcellulose) (HPC)
  T/C: 97 % of control
[3]
  T/C: 103 % of control
dose: 200.0 mg/kg/injection, schedule: Q01DX001 (ip), vehicle: Klucel (hydroxypropylcellulose) (HPC)
  T/C: 97 % of control
[4]
  T/C: 98 % of control
dose: 400.0 mg/kg/injection, schedule: Q01DX001 (ip), vehicle: Klucel (hydroxypropylcellulose) (HPC)
  T/C: 101 % of control

## Cc1noc(C)c1[N+](=O)[O-]
dose: 75.0 mg/kg/injection, schedule: Q01DX009 (ip), vehicle: saline
  T/C: 97 % of control
dose: 150.0 mg/kg/injection, schedule: Q01DX009 (ip), vehicle: saline
  T/C: 94 % of control
dose: 300.0 mg/kg/injection, schedule: Q01DX009 (ip), vehicle: saline
  T/C: 101 % of control

## CCN(CC)CCNC(Cc1ccccc1)c1ccc(OCc2ccccc2)cc1 (centres undefined)
[5]
  T/C: 100 % of control
[6]
  T/C: 96 % of control
dose: 400.0 mg/kg/injection, schedule: Q01DX001 (ip), vehicle: carboxymethylcellulose (CMC)
  T/C: 96 % of control

## CCCc1nc2c(=O)[nH]cnc2o1
[7]
  T/C: 89 % of control
[8]
  T/C: 95 % of control
[9]
  T/C: 101 % of control

## O=C1CC(=O)C(Br)=C1Br
dose: 1.5 mg/kg/injection, schedule: Q04DX003 (ip), vehicle: saline with Tween-80
  T/C: 101 % of control
dose: 3.0 mg/kg/injection, schedule: Q04DX003 (ip), vehicle: saline with Tween-80
  T/C: 105 % of control

## CCOC1CCC2C(CCC(/C=C/c3ccc(O)c4ncccc34)N2C)C1 (centres undefined)
dose: 21.0 mg/kg/injection, schedule: Q01DX015 (ip), vehicle: saline
  T/C: 113 % of control
dose: 36.0 mg/kg/injection, schedule: Q01DX015 (ip), vehicle: saline
  T/C: 111 % of control
dose: 88.8 mg/kg/injection, schedule: Q01DX001 (ip), vehicle: saline
  T/C: 103 % of control and 116 % of control
[10]
  T/C: 115 % of control
dose: 100.0 mg/kg/injection, schedule: Q01DX015 (ip), vehicle: saline
  T/C: 93 % of control
dose: 133.4 mg/kg/injection, schedule: Q01DX001 (ip), vehicle: saline
  T/C: 108 % of control and 116 % of control and 121 % of control
dose: 300.0 mg/kg/injection, schedule: Q01DX001 (ip), vehicle: saline
  T/C: 116 % of control and 121 % of control

## CCCC(O)C1CCCCC1O (centres undefined)
[7]
  T/C: 113 % of control
[8]
  T/C: 100 % of control
[9]
  T/C: 103 % of control

## CC(C)(C)OC1C2C=CC1C=C2 (centres undefined)
dose: 12.5 mg/kg/injection, schedule: Q04DX003 (ip), vehicle: Klucel (hydroxypropylcellulose) (HPC)
  T/C: 93 % of control
[1]
  T/C: 91 % of control
[2]
  T/C: 91 % of control
[3]
  T/C: 95 % of control

## O=[N+]([O-])C=C([SH2+])[SH2+].O=[N+]([O-])C=C([SH2+])[SH2+].[Co+3].c1ccc(C[P+](c2ccccc2)(c2ccccc2)c2ccccc2)cc1
dose: 75.0 mg/kg/injection, schedule: Q04DX003 (ip), vehicle: saline
  T/C: 93 % of control
dose: 150.0 mg/kg/injection, schedule: Q04DX003 (ip), vehicle: saline
  T/C: 93 % of control

## CC(C)(C)C(=O)C(C)(C)C
[5]
  T/C: 106 % of control
[6]
  T/C: 101 % of control

## C[C@]12CC[C@H](O)CC1=CC[C@@H]1[C@@H]2CC[C@](C)(C(=O)O)[C@H]1CC1Nc2ccccc2C1=O (some centres undefined)
[10]
  T/C: 95 % of control
[11]
  T/C: 91 % of control
[12]
  T/C: 92 % of control and 91 % of control
[13]
  T/C: 95 % of control
[14]
  T/C: 97 % of control and 86 % of control
[15]
  T/C: 104 % of control

## COC1OC(C)C(OS(C)(=O)=O)C2OC(C)(C)OC12 (centres undefined)
dose: 50.0 mg/kg/injection, schedule: Q01DX009 (ip), vehicle: Klucel (hydroxypropylcellulose) (HPC)
  T/C: 103 % of control
[16]
  T/C: 97 % of control
[3]
  T/C: 124 % of control
[17]
  T/C: 100 % of control
[4]
  T/C: 107 % of control
dose: 400.0 mg/kg/injection, schedule: Q01DX009 (ip), vehicle: Klucel (hydroxypropylcellulose) (HPC)
  T/C: 112 % of control
dose: 400.0 mg/kg/injection, schedule: Q04DX003 (ip), vehicle: Klucel (hydroxypropylcellulose) (HPC)
  T/C: 101 % of control

## COc1ccc(O)cc1C
[18]
  T/C: 104 % of control
[19]
  T/C: 107 % of control
[20]
  T/C: 117 % of control

## COc1ccc(NCc2cnc3nc(N)nc(N)c3n2)cc1
dose: 20.0 mg/kg/injection, schedule: Q01DX009 (ip), vehicle: saline with Tween-80
  T/C: 110 % of control
dose: 40.0 mg/kg/injection, schedule: Q01DX009 (ip), vehicle: saline with Tween-80
  T/C: 108 % of control
dose: 80.0 mg/kg/injection, schedule: Q01DX009 (ip), vehicle: saline with Tween-80
  T/C: 106 % of control

## O=C(O)c1cc(=O)c2ccc(Cl)cc2[nH]1
[10]
  T/C: 90 % of control
[18]
  T/C: 88 % of control
[12]
  T/C: 98 % of control
[19]
  T/C: 91 % of control
[14]
  T/C: 102 % of control
[20]
  T/C: 98 % of control

## C[C@]12CCC(=O)C=C1CC[C@@H]1[C@@H]2C(=O)C[C@@]2(C)[C@H]1CC[C@]2(O)C(=O)COP(=O)(Nc1ccccc1)Nc1ccccc1
dose: 50.0 mg/kg/injection, schedule: Q01DX001 (sc), vehicle: steriod suspending solution
  T/C: 102 % of control
dose: 100.0 mg/kg/injection, schedule: Q01DX001 (sc), vehicle: steriod suspending solution
  T/C: 98 % of control
dose: 200.0 mg/kg/injection, schedule: Q01DX001 (sc), vehicle: steriod suspending solution
  T/C: 102 % of control
dose: 400.0 mg/kg/injection, schedule: Q01DX001 (sc), vehicle: steriod suspending solution
  T/C: 98 % of control

## C=CS(=O)(=O)CCOc1ccc(Cl)cc1Cl
[16]
  T/C: 96 % of control
[17]
  T/C: 95 % of control

## CNC(=O)N1CC(C)OC(C)C1 (centres undefined)
[11]
  T/C: 115 % of control
dose: 200.0 mg/kg/injection, schedule: Q01DX009 (ip), vehicle: saline
  T/C: 92 % of control
[13]
  T/C: 105 % of control
dose: 400.0 mg/kg/injection, schedule: Q01DX009 (ip), vehicle: saline
  T/C: 107 % of control
[15]
  T/C: 101 % of control

## CCCCCCCCCCC(=O)N1CCCCCC1
dose: 50.0 mg/kg/injection, schedule: Q04DX002 (ip), vehicle: Klucel (hydroxypropylcellulose) (HPC)
  T/C: 100 % of control
dose: 100.0 mg/kg/injection, schedule: Q04DX002 (ip), vehicle: Klucel (hydroxypropylcellulose) (HPC)
  T/C: 100 % of control
dose: 200.0 mg/kg/injection, schedule: Q04DX002 (ip), vehicle: Klucel (hydroxypropylcellulose) (HPC)
  T/C: 95 % of control
